What was measured:
[1] = biological target: T1, HSV-1 helicase-primase (UL5(K103A) helicase-primase holoenzyme) (Human herpesvirus 1, UniProt P10189+P10236, K103A); test: HSV-1 Helicase-primase DNA Primase Assay (incorporation of [3H]GTP into primers); format: biochemical
T1 construct: made in house; host or cells: recombinant baculovirus expression (insect cells, by own knowledge of the cited Dodson 1989 and Dracheva 1995 methods)
Excerpt: i) HSV-1 Helicase-primase DNA Primase Assay
The HSV-1 helicase-primase enzyme used for primase assays was expressed and isolated as described (M. S. Dodson et al., J. Biol. Chem. 1989, 264, 20835; S. Dracheva et al. J. Biol. Chem. 1995, 270, 14148) except that the UL5-expressing baculovirus was changed to express UL5(K103A). The resulting altered enzyme contained no detectable helicase, DNA-dependent ATPase, or ATPase activity. However, DNA primase activity was increased over the wild type enzyme.
Assay: DNA primase activity was measured by the incorporation of [^3 H]GTP into newly synthesized primers by the UL5(K103A) helicase-primase holoenzyme. Assays were performed using as template the 50-mer single-stranded DNA oligonucleotide 5'-CTTCTTCGGT TCCGACTAC CCCTCCCGACTGCCTATGATGTTTATCCTTT G-3'OH (SEQ ID No. 1) derived from the preferred priming site on .phi.X174 single-stranded DNA [D. J. Teney et al., J. Biol. Chem. 1995, 270, 9129-9136]. The reaction mixtures (60 μl) contained […] pH 8.0, 5 mM magnesium chloride, 1 mM DTT, 0.01 % CHAPS, 100 μM each of ATP, GTP, CTP, 10 μM [biotin]UTP, 1 μCi [^3 H]GTP (specific activity 30.8 Ci/mmol), 1 μg of the 50-mer template and 45 μg/ml of the UL5(K103A)-altered helicase-primaseholoenzyme. The samples were incubated at 34° for 45 min in a circulating waterbath and reactions were quenched by the addition of 20 μl 0.5 M EDTA pH 8. Then, 50 μl of the reaction mixtures were transferred to Millipore filtration plates (MHVB N45, 0.45 μm) containing 40 μl of immobilized avidin beads (Pierce). After incubating 30 min at room temperature on a microplate shaker, the wells were washed five times with 300 μl wash buffer (50 mM 4-(2-hydroxyethyl)-1-piperazineethanesulfonic acid (HEPES) pH 7.5 and 0.5 M NaCl) and the filter plates were aspirated to dryness. The radioactivity in each well was counted using the Topcount® after adding 100 μl Microscint® 20 (Camberra-Packard Canada, Mississauga, Ontario, Canada) to each well.
In all cases, compounds were tested in three-fold serial dilutions and the results were expressed as percent inhibition as compared to control reactions without inhibitor. IC50 (i.e., inhibitor concentration that yielded 50% inhibition of enzyme activity) values were determined from dose-response curves using SAS software (SAS Institute, Cary, N.C., USA). A non-linear regression analysis based on the Hill equation, M. Dixon and E.C. Webb Enzymes, Academic Press: New York, N.Y., USA, 1979, was applied to the percent inhibition-concentration data.
(§1) Results for assay i are expressed under the heading HSV-1, IC50 (μM). Results for assay ii are expressed under the heading HSV-1, EC50 (μM).

HSV-1 = test: Inhibition of Herpes Simplex Virus (HSV-1) Replication in Cell Culture (ELISA of glycoprotein C); format: cell-based, HSV-1 strain F or KOS; conditions: Human alphaherpesvirus 1; viral replication in BHK-21 cells, MOI 0.05 PFU/cell, 24 h, 37°
Method: ii) Inhibition of Herpes Simplex Virus (HSV-1) Replication in Cell Culture
Assay: BHK-21 cells clone 13 (ATCC CCL10) were incubated for two days in 850 cm^2 roller bottles (2×10^7 cells/bottle) with α-MEM medium (Gibco Canada Inc., Burlington, Ontario, Canada) supplemented with 8% (v/v) fetal bovine serum (FBS, Gibco Canada, Inc.). The cells were trypsinized and then 3,000 cells in 100 μL of fresh medium were transferred into each well of a 96-well microtiter plate. The cells were incubated at 37° for a period of 3 days to reach a density of 50,000 cells per well. The cells were washed twice with 100 μL of α-MEM supplemented with 2% heat inactivated FBS and incubated for 1-2 h in 100 μL of the same medium.
Thereafter, the cells were infected with HSV-1 strain F or KOS (multiplicity of infection=0.05 PFU/cell) in 50 μL of α-MEM supplemented with 2% heat inactivated FBS. Following one hour of virus absorption at 37°, the medium was removed and the cells were washed with α-MEM supplemented with 2% heat inactivated FBS (2×100 μL). The cells were incubated with or without 100 μL of the appropriate concentration of test reagent in α-MEM medium supplemented with 2% heat inactivated FBS. After 24 h of incubation at 37°, the extent of viral replication was determined by an ELISA assay; for instance, the following assay that detects the late glycoprotein C of HSV-1.
Cells were fixed in the microtiter plate with 100 μL of 0.063% glutaraldehyde in phosphate buffered saline for 30 min at room temperature. The microtiter plate was then washed once with casein blocking solution and blocked with 200 μL of the same solution for 1 h at room temperature. Thereafter, 100 μL of mAb C11 recognizing the glycoprotein C of HSV-1 (see E. Trybala et al., Journal of General Virology, 1994, 75, 743) was added to each well for 2 h at room temperature. The plate was washed three times with phosphate buffered saline containing 0.05% polyoxyethylene (20) sorbitan monooleate. The cells were incubated with 100 μL of sheep anti-mouse IgG horseradish peroxidase for 1 h at room temperature in the dark.
The plate was washed three times with 200 μL of the above-noted phosphate buffer saline preparation, and then once with 0.1 M sodium citrate (pH 4.5). Thereafter, 100 μL of orthophenylenediamine dihydrochloride (OPD, Gibco, Canada Inc.) was added to each well. The plate was agitated on a microplate shaker for 30 min in the dark. Color development was monitored at 450 nm using a microplate spectrophotometer.
SAS was used to calculate % inhibition of viral replication and to generate EC50 values.
as §1

T1 sequence (P10189 whole entry, looked up, stated change not applied): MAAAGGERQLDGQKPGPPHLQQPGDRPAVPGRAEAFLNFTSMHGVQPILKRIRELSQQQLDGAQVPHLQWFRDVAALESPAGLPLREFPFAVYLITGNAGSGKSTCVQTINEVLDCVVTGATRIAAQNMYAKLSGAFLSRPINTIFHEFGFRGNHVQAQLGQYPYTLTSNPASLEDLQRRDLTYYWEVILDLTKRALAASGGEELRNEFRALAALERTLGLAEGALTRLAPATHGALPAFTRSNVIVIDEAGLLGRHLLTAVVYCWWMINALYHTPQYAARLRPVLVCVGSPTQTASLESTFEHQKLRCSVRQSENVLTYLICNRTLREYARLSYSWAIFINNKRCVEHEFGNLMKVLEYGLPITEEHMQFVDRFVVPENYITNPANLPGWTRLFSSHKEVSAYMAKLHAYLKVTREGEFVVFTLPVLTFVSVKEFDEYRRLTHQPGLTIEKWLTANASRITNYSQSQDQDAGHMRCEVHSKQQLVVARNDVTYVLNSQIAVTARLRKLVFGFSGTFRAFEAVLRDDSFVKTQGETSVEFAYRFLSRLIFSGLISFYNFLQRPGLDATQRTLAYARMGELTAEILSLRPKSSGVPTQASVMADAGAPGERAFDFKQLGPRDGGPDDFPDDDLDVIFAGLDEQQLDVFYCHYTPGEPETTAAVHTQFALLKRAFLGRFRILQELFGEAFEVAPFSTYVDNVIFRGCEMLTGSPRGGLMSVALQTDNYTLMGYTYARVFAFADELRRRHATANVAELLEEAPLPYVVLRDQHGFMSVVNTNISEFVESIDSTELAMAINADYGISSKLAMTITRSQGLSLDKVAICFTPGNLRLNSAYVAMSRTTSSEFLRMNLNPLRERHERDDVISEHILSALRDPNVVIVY
T1 sequence (P10192 whole entry, stated change not applied, further chain): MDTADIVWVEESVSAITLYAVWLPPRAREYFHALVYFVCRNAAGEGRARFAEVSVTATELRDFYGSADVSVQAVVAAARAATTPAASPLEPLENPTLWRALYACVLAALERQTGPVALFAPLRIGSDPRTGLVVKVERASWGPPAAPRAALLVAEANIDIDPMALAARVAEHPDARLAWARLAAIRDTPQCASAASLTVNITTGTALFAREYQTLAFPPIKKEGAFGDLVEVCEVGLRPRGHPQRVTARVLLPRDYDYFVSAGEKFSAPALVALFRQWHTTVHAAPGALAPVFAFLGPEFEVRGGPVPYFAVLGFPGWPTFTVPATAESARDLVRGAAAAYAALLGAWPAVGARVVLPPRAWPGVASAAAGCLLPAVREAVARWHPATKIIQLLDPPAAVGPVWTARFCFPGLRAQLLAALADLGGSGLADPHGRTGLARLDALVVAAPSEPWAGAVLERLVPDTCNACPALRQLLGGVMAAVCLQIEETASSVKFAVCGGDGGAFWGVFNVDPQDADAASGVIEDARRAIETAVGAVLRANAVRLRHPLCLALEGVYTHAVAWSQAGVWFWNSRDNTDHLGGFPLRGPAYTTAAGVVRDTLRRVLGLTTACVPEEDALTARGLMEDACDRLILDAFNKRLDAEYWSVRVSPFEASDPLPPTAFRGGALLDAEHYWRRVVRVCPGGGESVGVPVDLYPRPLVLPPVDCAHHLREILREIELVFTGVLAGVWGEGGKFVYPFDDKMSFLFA
T1 sequence (P10236 whole entry, stated change not applied): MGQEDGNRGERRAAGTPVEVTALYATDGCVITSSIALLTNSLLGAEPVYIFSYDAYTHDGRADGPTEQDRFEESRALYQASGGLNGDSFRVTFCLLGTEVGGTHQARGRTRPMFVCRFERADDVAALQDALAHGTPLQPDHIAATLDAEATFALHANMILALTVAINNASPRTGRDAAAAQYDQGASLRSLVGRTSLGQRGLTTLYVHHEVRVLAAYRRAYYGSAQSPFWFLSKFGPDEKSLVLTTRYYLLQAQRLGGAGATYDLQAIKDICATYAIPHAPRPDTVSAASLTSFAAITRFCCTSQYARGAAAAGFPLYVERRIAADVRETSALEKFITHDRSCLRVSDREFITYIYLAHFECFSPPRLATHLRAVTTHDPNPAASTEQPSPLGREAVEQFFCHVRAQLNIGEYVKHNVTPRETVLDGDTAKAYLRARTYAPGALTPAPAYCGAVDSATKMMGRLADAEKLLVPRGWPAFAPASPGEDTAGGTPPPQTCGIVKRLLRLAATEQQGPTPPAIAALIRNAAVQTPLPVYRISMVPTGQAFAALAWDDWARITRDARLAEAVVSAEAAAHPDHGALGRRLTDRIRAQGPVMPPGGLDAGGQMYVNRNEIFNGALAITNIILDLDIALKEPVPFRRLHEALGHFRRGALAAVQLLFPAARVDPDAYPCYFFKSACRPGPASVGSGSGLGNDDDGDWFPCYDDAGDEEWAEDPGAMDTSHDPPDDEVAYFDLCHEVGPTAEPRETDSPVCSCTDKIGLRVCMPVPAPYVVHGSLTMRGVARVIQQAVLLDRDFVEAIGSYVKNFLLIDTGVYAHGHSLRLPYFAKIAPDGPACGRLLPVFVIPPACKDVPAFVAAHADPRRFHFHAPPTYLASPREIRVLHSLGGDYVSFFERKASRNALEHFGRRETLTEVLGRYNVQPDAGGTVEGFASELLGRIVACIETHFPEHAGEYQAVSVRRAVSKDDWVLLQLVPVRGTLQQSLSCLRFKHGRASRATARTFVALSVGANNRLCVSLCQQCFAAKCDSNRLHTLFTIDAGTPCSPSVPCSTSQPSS

Structure (SMILES) | IC50 [1] [µM] | EC50 (HSV-1) [µM]
CCCCC(C(=O)OCC)C(=O)c1cccc(NC(=O)c2ccc(Cl)cc2O)c1 (stereo not drawn) [Entry 1, Ethyl α-butyl-3-{(4chloro2-hydroxybenzoyl)amino}-β-oxobenzenepropanoate] | 1 to 100 | 1 to 100
CC(=O)c1cccc(NC(=O)c2ccc(Cl)cc2O)c1 [Entry 2] | 1 to 100 | 1 to 100
CCOC(=O)CC(=O)c1cccc(NC(=O)c2ccc(Cl)cc2O)c1 [Entry 3] | 1 to 100 | 1 to 100
CCCC(=O)c1cccc(NC(=O)c2ccc(Cl)cc2O)c1 [Entry 4] | 1 to 100 | 1 to 100
O=C(Cc1ccccc1)c1cccc(NC(=O)c2ccc(Cl)cc2O)c1 [Entry 5] | 1 to 100 | 1 to 100
O=C(Nc1cccc(C(=O)C2CCCCC2)c1)c1ccc(Cl)cc1O [Entry 6] | 1 to 100 | 1 to 100
O=C(CCc1ccccc1)c1cccc(NC(=O)c2ccc(Cl)cc2O)c1 [Entry 7] | 1 to 100 | 
O=C(OCc1ccccn1)c1cccc(NC(=O)c2ccc(Cl)cc2O)c1 [Entry 8] | < 1 | 1 to 100
O=C(OCc1ccccc1)c1cccc(NC(=O)c2ccc(Cl)cc2O)c1 [Entry 9] | < 1 | 
O=C(Nc1cccc(C(=O)N2CCCCC2)c1)c1ccc(Cl)cc1O [Entry 10] | > 100 | < 1
CN(CCc1ccccn1)C(=O)c1cccc(NC(=O)c2ccc(Cl)cc2O)c1 [Entry 11] | > 100 | 
CCCCN(C)C(=O)c1cccc(NC(=O)c2ccc(Cl)cc2O)c1 [Entry 12, N-Butyl-N-methyl-3-{(4-chloro-2-hydroxybenzoyl)amino)benzamide] | > 100 | < 1
O=C(NCC1CCCCC1)c1cccc(NC(=O)c2ccc(Cl)cc2O)c1 [Entry 13] | < 1 | 1 to 100
O=C(NCCc1ccccn1)c1cccc(NC(=O)c2ccc(Cl)cc2O)c1 [Entry 14] | 1 to 100 | 1 to 100
O=C(NCc1ccccc1)c1cccc(NC(=O)c2ccc(Cl)cc2O)c1 [Entry 15] | < 1 | 1 to 100
CCCCNC(=O)c1cccc(NC(=O)c2ccc(Cl)cc2O)c1 [Entry 16] | 1 to 100 | 1 to 100
O=C(NCc1ccccn1)c1cccc(NC(=O)c2ccc(Cl)cc2O)c1 [Entry 17] | < 1 | 1 to 100
O=C(NC1CCCCC1)c1cccc(NC(=O)c2ccc(Cl)cc2O)c1 [Entry 18] | 1 to 100 | < 1
O=C(NCc1ccncc1)c1cccc(NC(=O)c2ccc(Cl)cc2O)c1 [Entry 19] | 1 to 100 | 
CCCCCC(=O)c1cccc(NC(=O)c2cccc(Cl)c2O)c1 [Entry 101] | 1 to 100 | 1 to 100
Cc1ccc(C(=O)Nc2cccc(C(=O)NCc3ccccc3)c2)c(O)c1 [Entry 102] | < 1 | 
COc1ccc(C(=O)Nc2cccc(C(=O)NCc3ccccc3)c2)c(O)c1 [Entry 103] | < 1 | 
[N-]=[N+]=Nc1ccc(C(=O)Nc2cccc(C(=O)NCc3ccccc3)c2)c(O)c1 [Entry 104] | < 1 | 
Nc1ccccc1C(=O)Nc1cccc(C(=O)NCc2ccccc2)c1 [Entry 105] | > 100 | 
[N-]=[N+]=Nc1cc(O)c(C(=O)Nc2cccc(C(=O)NCc3ccccc3)c2)cc1I [Entry 106] | < 1 | 
Nc1cc(Cl)ccc1C(=O)Nc1cccc(C(=O)NCc2ccccc2)c1 [Entry 107] | > 100 | 
Nc1ccc(C(=O)Nc2cccc(C(=O)NCc3ccccc3)c2)c(O)c1 [Entry 108] | 1 to 100 | 

From patent US6323202A, “HSV primase inhibitors” (Boehringer Ingelheim (Canada) Ltd., priority 2000, dated 2001)
